Results as given in patent US12178793B2, “Ophthalmic compositions containing a nitric oxide releasing prostamide” (NICOX SA, priority 2018, dated 2024).
Converted amounts (≈) assume the structure as drawn.

Experiments:
[1] = Solubility in aqueous solutions at pH 6.0 containing a solubilizing agent; type: physicochemical
[2] = cited from earlier work
[3] = Aqueous solubility of the active ingredient; type: physicochemical; conditions: water, read-out: minimum aqueous solubility
Experimental: Hexanoic acid, 6-(nitrooxy)-, (1S,2E)-3-[(1R,2R,3S,5R)-2-[(2Z)-7-(ethylamino)-7-oxo-2-hepten-1-yl]-3,5-dihydroxycyclopentyl]-1-(2-phenylethyl)-2-propen-1-yl ester is a viscous oil having a minimum aqueous solubility of 0.02 mg/ml therefore aqueous pharmaceutical compositions of hexanoic acid, 6-(nitrooxy)-, (1S,2E)-3-[(1R,2R,3S,5R)-2-[(2Z)-7-(ethylamino)-7-oxo-2-hepten-1-yl]-3,5-dihydroxycyclopentyl]-1-(2-phenylethyl)-2-propen-1-yl ester must contain solubilizing agents that increase the water solubility of the compound and allow achieving therapeutically active concentrations of the compound.

[4] = Pharmacokinetic evaluation after single ocular instillation, Study 2 (bimatoprost free acid in aqueous humor); type: in vivo, Dutch Belted Rabbits; conditions: bimatoprost free acid in aqueous humor as marker; benzalkonium chloride up to 0.02% w/w
From the text: Pharmacokinetic Evaluation in Dutch Belted Rabbits after Single Ocular Instillation
The aim of this study was to assess the aqueous humor content of bimatoprost free acid following topical ocular dosing with three different aqueous ophthalmic solutions containing hexanoic acid, 6-(nitrooxy)-, (1S,2E)-3-[(1R,2R,3S,5R)-2-[(2Z)-7-(ethylamino)-7-oxo-2-hepten-1-yl]-3,5-dihydroxycyclopentyl]-1-(2-phenylethyl)-2-propen-1-yl ester (0.042% w/w) in three different vehicles reported in Table 10.
Forty animals were included in the study. They were allocated into four groups of 10 animals/group and were administered with the above reported tested aqueous ophthalmic solutions
All animals included in the study were administered by ocular instillation of both eyes by means of a graduated pipette at a volume of […]. Two animals per formula were sacrificed at 0 h (pre-dose), 1 h, 2 h, 4 h and 8 h, and aqueous humor samples were obtained immediately from both eyes.

solubility ([1]; aqueous solution at pH 6.0 containing 0.5% (w/w) macrogol 15-hydroxystearate (Kolliphor HS15))	solubility ([1]; aqueous solution at pH 6.0 containing 0.5% (w/w) polysorbate 80 (Tween 80))	solubility [3] [µg/mL]	effect of the excipient on the ocular penetration of NCX 470 [4]	Compound	intra ocular pressure (IOP)-lowering ([2]; Impagnatiello et al., Invest Ophthalmol Vis Sci. 2015)	IOP-lowering efficacy versus bimatoprost ([2]; vs equimolar doses of bimatoprost, vehicle 0.25% Tween 80, 0.02% BAK, 2% glycerine and 0.1% EDTA, Br J Pharmacol 2018)
0.070 % (w/w)	0.074 % (w/w)	20 (≈ 34.8 µM)		CCNC(=O)CCC/C=C\C[C@@H]1[C@@H](/C=C/[C@H](CCc2ccccc2)OC(=O)CCCCCO[N+](=O)[O-])[C@H](O)C[C@@H]1O [NCX 470, Hexanoic acid, 6-(nitrooxy)-, (1S,2E)-3-[(1R,2R,3S,5R)-2-[(2Z)-7-(ethylamino)-7-oxo-2-hepten-1-yl]-3,5-dihydroxycyclopentyl]-1-(2-phenylethyl)-2-propen-1-yl ester]	effective	greater IOP-lowering efficacy
			did not exert any effect	benzalkonium chloride		
